Measurements as given in PubChem BioAssay (NCI).
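Exposure lasted 48 hours, with cells grown in 96-well plates and compounds tested at five concentrations. TGI is the concentration that stops growth completely.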

Key:
Experiment in all cases: NCI anticancer screen, dose series, 48 h
LXFL 529 NSCLC = tested on: LXFL 529 NSCLC
XF 498 CNS = tested on: XF 498 CNS
IGROV1 ovarian = tested on: IGROV1 ovarian
M14 melanoma = tested on: M14 melanoma
SNB-19 CNS = tested on: SNB-19 CNS
DMS 114 small cell lung = tested on: DMS 114 small cell lung
KM20L2 colon = tested on: KM20L2 colon
DMS 273 small cell lung = tested on: DMS 273 small cell lung
DLD-1 colon = tested on: DLD-1 colon
A498 renal = tested on: A498 renal
CAKI-1 renal = tested on: CAKI-1 renal
ACHN renal = tested on: ACHN renal
NCI-H226 lung = tested on: NCI-H226 lung
DU-145 prostate = tested on: DU-145 prostate
PC-3 prostate = tested on: PC-3 prostate
MDA-N = tested on: MDA-N
NCI/ADR-RES ovarian = tested on: NCI/ADR-RES ovarian
MDA-MB-231 breast = tested on: MDA-MB-231 breast
HS 578T breast = tested on: HS 578T breast
T-47D breast = tested on: T-47D breast

Row | SMILES | TGI (LXFL 529 NSCLC) [µM] | TGI (XF 498 CNS) [µM] | TGI (IGROV1 ovarian) [µM] | TGI (M14 melanoma) [µM] | TGI (SNB-19 CNS) [µM] | TGI (DMS 114 small cell lung) [µM] | TGI (KM20L2 colon) [µM] | TGI (DMS 273 small cell lung) [µM] | TGI (DLD-1 colon) [µM] | TGI (A498 renal) [µM] | TGI (CAKI-1 renal) [µM] | TGI (ACHN renal) [µM] | TGI (NCI-H226 lung) [µM] | TGI (DU-145 prostate) [µM] | TGI (PC-3 prostate) [µM] | TGI (MDA-N) [µM] | TGI (NCI/ADR-RES ovarian) [µM] | TGI (MDA-MB-231 breast) [µM] | TGI (HS 578T breast) [µM] | TGI (T-47D breast) [µM]
1 | O=C1C(Cl)N(c2ccccc2[N+](=O)[O-])C1c1c[nH]c2ccccc12 (stereo not given) | > 100 | > 100 | > 100 | > 100 | > 100 | > 100 | > 100 |  |  |  |  |  |  |  |  |  |  |  |  | 
2 | O=C(Nc1cccc(O)c1)C(=O)C(C(=O)c1ccccc1F)C1OC(=O)c2ccccc21 (stereo not given) | 88.8 |  | > 100 | > 100 | 68 | 40.7 | 58.9 | 98.1 | > 100 | > 100 | 94 | > 100 | 49.1 |  |  |  |  |  |  | 
3 | OC1(c2ccc(Cl)cc2)c2ccc3ccccc3c2C2=N[C@H]3CCCC[C@@H]3N21 (stereo not given in full) |  |  | > 100 | 23 | > 100 |  |  |  |  | 52.7 | 67.1 | > 100 | > 100 | 37.2 | 51.2 | > 100 | 5.99 | > 100 | 3.94 | 26.5
4 | CCN1CCC(O)(C(C(=O)O)c2ccccc2)CC1 (stereo not given) |  |  | > 100 | > 100 | > 100 |  |  |  |  | > 100 | > 100 | > 100 | > 100 | > 100 | > 100 |  | > 100 | > 100 | > 100 | > 100
5 | NC(N)=Nc1ncccc1[N+](=O)[O-] |  | > 100 | > 100 |  | > 100 | 30.5 | 70.2 | > 100 | > 100 | > 100 | > 100 |  | > 100 |  |  |  | > 100 |  |  | 
6 | O=[N+]([O-])c1ccc(-c2ccc(-c3csc(Nc4ccccn4)n3)o2)cc1 | 76.8 | 49.9 | > 100 | > 100 | 77.4 |  | > 100 | > 100 | > 100 |  | > 100 | > 100 |  |  |  |  |  |  |  | 
7 | O=c1oc2cc(O)ccc2c(O)c1C(c1ccc(C(c2c(O)c3ccc(O)cc3oc2=O)c2c(O)c3ccc(O)cc3oc2=O)cc1)c1c(O)c2ccc(O)cc2oc1=O |  |  | > 100 | > 100 |  |  |  |  |  | > 100 | > 100 |  | > 100 | > 100 | > 100 | > 100 | > 100 | > 100 | > 100 | > 100
8 | CCC(C(=O)c1ccc(OC)c(OC)c1)N(C(=O)C(F)(F)F)C(C)c1ccccc1 (stereo not given) |  |  | > 100 | > 100 | > 100 |  |  |  |  |  | > 100 | > 100 |  | > 100 | > 100 | > 100 | > 100 | > 100 |  | > 100
